# Assay results from ChEMBL document CHEMBL4627384, “l-Thyroxin and the Nonclassical Thyroid Hormone TETRAC Are Potent Activators of PPARγ” (J Med Chem, 2020).
# Calls of active or inactive are those of the source. The rule behind the calls is not given here.
# How the values were obtained:
# [1] = Half life in RjOrl:Swiss CD-1 mouse at 10 mg/kg, po administered as single dose measured after 1 to 24 hrs by LC-MS analysis; format: ADME, organism-based; conditions: in vivo
# [2] = Toxicity in RjOrl:Swiss CD-1 mouse assessed as induction of adverse effect at 10 mg/kg, po administered as single dose; format: organism-based; conditions: in vivo
# [3] = Tmax in RjOrl:Swiss CD-1 mouse at 10 mg/kg, po administered as single dose measured after 1 to 24 hrs by LC-MS analysis; format: ADME, organism-based; conditions: in vivo
# [4] = Plasma concentration in RjOrl:Swiss CD-1 mouse at 10 mg/kg, po administered as single dose measured after 4 to 24 hrs by LC-MS analysis; format: ADME, organism-based; conditions: in vivo
# [5] = Cmax in RjOrl:Swiss CD-1 mouse at 10 mg/kg, po administered as single dose measured after 1 to 24 hrs by LC-MS analysis; format: ADME, organism-based; parameters: dose 10 mg/kg, route oral; conditions: in vivo
# [6] = biological target: T1, Peroxisome proliferator-activated receptor gamma (Homo sapiens, UniProt P37231); experiment: Agonist activity at recombinant human pFA-CMV fused PPARgamma expressed in HEK293T cells transfected with pFR-luciferase plasmid and pRL-SV40 plasmid incubated for 14 to 16 hrs by dual glo luciferase reporter gene assay; format: cell-based, HEK-293T
# T1 sequence (P37231 whole entry): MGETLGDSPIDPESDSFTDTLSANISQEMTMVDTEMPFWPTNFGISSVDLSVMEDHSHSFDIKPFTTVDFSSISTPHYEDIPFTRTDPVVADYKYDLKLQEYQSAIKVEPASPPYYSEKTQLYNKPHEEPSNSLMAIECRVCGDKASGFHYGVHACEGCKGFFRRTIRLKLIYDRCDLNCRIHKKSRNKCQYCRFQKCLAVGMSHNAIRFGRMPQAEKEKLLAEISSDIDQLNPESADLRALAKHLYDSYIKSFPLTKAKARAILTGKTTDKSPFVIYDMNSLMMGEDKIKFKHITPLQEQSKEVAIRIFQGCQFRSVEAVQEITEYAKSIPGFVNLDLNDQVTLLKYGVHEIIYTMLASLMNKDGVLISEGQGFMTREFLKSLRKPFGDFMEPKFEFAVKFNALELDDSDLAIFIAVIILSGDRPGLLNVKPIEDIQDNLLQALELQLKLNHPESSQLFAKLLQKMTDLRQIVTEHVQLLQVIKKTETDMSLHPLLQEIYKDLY
# [7] = biological target: T2, Retinoic acid receptor RXR-alpha (Homo sapiens, UniProt P19793); experiment: Agonist activity at recombinant human pFA-CMV fused RXRalpha LBD expressed in HEK293T cells transfected with pFR-luciferase plasmid and pRL-SV40 plasmid incubated for 14 to 16 hrs by dual glo luciferase reporter gene assay; format: cell-based, HEK-293T; conditions: hek-293t
# T2 sequence (P19793 whole entry): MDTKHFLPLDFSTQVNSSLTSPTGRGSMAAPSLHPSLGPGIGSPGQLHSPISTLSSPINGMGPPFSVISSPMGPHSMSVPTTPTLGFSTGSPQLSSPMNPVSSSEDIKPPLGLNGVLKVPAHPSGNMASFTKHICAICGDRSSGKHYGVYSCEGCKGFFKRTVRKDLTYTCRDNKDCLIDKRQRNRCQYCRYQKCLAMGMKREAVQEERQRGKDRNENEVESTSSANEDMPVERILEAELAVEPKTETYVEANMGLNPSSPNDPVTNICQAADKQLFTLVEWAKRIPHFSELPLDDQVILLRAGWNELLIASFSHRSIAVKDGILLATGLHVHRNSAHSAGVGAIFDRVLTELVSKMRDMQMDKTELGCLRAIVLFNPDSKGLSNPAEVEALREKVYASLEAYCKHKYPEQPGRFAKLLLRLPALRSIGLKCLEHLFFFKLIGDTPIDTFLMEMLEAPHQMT
# [8] = Drug level in human serum; format: ADME, cell-free; conditions: read-out: Drug uptake
# [9] = biological target: T1, Peroxisome proliferator-activated receptor gamma; experiment: Binding affinity to recombinant PPARgamma LBD (unknown origin) by isothermal titration calorimetry
# HEK-293T = experiment: Activation of renilla luciferase expressed in HEK293T cells at 3 uM incubated for 14 to 16 hrs by reporter gene assay; format: cell-based; conditions: Renilla reniformis
# [10] = Drug level in euthyroid human serum by RIA; format: ADME, cell-free; conditions: read-out: Drug uptake
half-life [1] [h],Tmax [3] [h],concentration [4] [nM],Cmax [5] [ng/mL],concentration [10] [nM],Compound,Activity [2],EC50 [6] [µM],EC50 [7],concentration [8] [nM],Kd [9] [µM],Activity (HEK-293T)
19.4,1,40,3180,,O=C(O)Cc1cc(Br)c(Oc2cc(I)c(O)c(I)c2)c(I)c1,Non-Toxic,,,,,
8.7,2,40,4480,,N[C@@H](Cc1cc(Br)c(Oc2cc(I)c(O)c(I)c2)c(I)c1)C(=O)O,Non-Toxic,12.9,,,,

# Continued, compound first:
Compound,half-life [1] [h],Tmax [3] [h],concentration [4] [nM],Cmax [5] [ng/mL],concentration [10] [nM],Activity [2],EC50 [6] [µM],EC50 [7],concentration [8] [nM],Kd [9] [µM],Activity (HEK-293T)
N[C@@H](Cc1cc(I)c(Oc2ccc(O)c(I)c2)c(I)c1)C(=O)O [LIOTHYRONINE],,,,,,,5.8,Not Active,1.3 to 2.1,0.71,
N[C@@H](Cc1ccc(Oc2cc(I)c(O)c(I)c2)c(I)c1)C(=O)O [REVERSE TRIIODOTHYRONINE],,,,,,,3.8,Not Active,,0.63,
O=C(O)Cc1cc(I)c(Oc2ccc(O)c(I)c2)c(I)c1 [TIRATRICOL],,,,,0.24,,,,,,inactive
